According to patent publication US20230416248A1, “COMPOUNDS AND USES THEREOF” (Foghorn Therapeutics Inc., priority 2020, published 2023):

Experiments:
[1] = molecular target: T1, BRG-1 (Homo sapiens, UniProt P51532); assay: ATPase catalytic activity of BRG-1, ADP-Glo in vitro biochemical assay; settings: ATPase catalytic activity, ADP-Glo; 30 nM BRG-1, 400 μM ATP; read-out: BRG1 IC50
T1 construct: made in house; host or cells: High Five insect cells
Summary of the method: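 Once the ATPase reaction finished, leftover ATP was depleted over 40 minutes at room temperature. Generated ADP was next turned back into ATP during a 60-minute room-temperature step. Luciferase-derived light was then measured.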

[2] = molecular target: T2, BRM (Homo sapiens, UniProt P51531); assay: ATPase catalytic activity of BRM, ADP-Glo in vitro biochemical assay; settings: for IC50: ATPase catalytic activity, ADP-Glo, 30 nM BRM, 400 μM ATP; for Ratio*: ratio of BRG1 IC50 to BRM IC50
T2 construct: made in house; host or cells: High Five insect cells
T2 sequence (P51531 whole entry): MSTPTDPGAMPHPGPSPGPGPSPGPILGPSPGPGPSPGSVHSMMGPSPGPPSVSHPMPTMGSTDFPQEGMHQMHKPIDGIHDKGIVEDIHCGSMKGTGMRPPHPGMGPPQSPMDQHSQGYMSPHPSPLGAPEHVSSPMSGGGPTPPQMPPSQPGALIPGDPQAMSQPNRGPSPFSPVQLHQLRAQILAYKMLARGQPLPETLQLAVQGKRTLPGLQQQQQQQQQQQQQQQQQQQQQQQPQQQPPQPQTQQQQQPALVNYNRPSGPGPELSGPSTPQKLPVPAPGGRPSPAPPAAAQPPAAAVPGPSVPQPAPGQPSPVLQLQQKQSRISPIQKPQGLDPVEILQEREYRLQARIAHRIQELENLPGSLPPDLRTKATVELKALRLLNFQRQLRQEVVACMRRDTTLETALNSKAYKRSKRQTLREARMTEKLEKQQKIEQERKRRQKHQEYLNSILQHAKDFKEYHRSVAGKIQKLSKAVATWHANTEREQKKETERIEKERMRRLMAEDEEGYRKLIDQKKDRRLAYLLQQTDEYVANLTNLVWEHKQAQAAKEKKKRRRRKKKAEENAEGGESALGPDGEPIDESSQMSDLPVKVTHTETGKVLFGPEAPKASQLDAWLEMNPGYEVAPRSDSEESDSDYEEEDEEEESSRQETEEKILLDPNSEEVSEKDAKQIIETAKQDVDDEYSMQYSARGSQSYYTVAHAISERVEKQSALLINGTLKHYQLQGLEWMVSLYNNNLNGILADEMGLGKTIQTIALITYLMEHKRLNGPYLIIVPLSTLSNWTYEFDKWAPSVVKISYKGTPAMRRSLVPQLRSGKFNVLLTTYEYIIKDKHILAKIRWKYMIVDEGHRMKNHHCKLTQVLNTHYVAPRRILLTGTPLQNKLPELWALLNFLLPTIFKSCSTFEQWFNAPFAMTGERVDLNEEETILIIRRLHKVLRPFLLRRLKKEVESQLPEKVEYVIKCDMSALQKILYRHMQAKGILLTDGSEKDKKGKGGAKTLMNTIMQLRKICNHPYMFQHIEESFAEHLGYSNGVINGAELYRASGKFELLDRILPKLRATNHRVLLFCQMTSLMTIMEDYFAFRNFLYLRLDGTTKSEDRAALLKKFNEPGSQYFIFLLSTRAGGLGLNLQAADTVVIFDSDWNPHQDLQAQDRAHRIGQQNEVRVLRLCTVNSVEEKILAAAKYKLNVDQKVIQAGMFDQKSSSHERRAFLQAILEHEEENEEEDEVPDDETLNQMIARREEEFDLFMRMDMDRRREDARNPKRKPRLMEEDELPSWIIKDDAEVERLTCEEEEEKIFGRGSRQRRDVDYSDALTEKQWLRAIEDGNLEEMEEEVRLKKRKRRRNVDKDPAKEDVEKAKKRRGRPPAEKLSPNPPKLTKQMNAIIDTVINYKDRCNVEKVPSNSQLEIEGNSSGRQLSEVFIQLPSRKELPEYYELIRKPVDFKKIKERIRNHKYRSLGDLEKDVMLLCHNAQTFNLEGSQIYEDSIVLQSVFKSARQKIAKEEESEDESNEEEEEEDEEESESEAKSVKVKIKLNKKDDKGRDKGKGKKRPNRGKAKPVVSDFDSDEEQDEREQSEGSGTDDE
Summary of the method: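 ADP-Glo luminescence, after depletion of leftover ATP and conversion of ADP, reported the activity. The 1 h room-temperature reaction held 400 μM ATP, 20 nM salmon sperm DNA and 30 nM BRM in 20 mM Tris pH 8, 20 mM MgCl2, 50 mM NaCl, 0.1% Tween-20, 1 mM DTT.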

T1 sequence (P51532 whole entry): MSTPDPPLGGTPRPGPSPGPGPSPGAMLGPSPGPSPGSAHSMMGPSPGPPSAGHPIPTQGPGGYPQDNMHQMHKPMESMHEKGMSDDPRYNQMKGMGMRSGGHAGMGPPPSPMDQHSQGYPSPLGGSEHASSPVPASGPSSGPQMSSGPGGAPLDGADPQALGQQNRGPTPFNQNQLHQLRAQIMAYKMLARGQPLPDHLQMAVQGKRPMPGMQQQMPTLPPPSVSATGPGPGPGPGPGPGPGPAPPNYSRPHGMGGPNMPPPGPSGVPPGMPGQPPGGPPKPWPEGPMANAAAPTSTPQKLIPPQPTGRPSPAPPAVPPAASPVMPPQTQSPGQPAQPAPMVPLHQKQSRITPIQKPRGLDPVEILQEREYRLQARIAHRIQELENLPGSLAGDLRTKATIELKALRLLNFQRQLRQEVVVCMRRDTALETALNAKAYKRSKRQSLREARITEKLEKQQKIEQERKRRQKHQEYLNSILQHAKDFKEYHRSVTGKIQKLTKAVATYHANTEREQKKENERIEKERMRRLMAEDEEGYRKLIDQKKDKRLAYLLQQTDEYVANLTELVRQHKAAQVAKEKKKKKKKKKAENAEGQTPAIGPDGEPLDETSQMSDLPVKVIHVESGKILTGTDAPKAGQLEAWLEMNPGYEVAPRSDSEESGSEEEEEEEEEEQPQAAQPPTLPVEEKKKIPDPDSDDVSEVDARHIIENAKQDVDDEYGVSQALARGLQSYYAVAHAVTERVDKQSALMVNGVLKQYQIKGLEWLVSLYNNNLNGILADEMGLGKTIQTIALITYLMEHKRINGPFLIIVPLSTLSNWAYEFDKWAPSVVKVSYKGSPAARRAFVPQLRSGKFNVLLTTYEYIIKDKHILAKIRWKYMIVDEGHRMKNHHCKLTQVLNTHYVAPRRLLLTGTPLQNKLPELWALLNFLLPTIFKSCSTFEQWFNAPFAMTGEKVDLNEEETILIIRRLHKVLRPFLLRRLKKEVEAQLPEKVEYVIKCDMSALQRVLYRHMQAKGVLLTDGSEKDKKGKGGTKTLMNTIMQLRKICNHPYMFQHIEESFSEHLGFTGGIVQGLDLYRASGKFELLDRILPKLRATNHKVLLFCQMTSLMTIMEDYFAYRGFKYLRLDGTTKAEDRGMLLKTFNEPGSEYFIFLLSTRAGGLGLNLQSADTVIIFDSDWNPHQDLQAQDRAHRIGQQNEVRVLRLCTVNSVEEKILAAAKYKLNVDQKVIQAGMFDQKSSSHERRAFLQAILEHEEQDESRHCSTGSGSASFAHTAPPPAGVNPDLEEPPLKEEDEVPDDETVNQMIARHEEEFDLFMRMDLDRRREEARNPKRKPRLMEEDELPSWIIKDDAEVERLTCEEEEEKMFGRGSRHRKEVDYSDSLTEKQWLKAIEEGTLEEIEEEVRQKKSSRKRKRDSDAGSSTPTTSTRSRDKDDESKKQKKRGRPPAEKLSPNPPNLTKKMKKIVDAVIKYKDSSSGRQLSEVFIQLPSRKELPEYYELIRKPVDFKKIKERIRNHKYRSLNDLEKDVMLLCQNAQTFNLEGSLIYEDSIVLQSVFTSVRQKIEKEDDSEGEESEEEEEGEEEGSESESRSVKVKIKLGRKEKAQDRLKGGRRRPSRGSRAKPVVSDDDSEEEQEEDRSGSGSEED

Row | SMILES | IC50 [1] [nM] | IC50 [2] [nM] | Ratio* [2]
1 | O=C(NCc1cc2nc(N3CCOc4ccc(C(F)F)nc43)ccc2cn1)c1ccc2c(c1)S(=O)(=O)CCOC2 [Compound 594] | 1190 | 37.2 | 31.92
2 | CC1CN(c2cccc(-c3ccc4cnc(CNC(=O)c5cnc6c(c5)S(=O)(=O)C(C)CC6)cc4n3)n2)CC(C)O1 (stereo not drawn) [Compound 597] | 479 | 41.3 | 11.61
3 | O=C(NCc1cc2nc(N3CCCc4ccc(COC5CC5)nc43)ccc2cn1)c1ccc2c(c1)S(=O)(=O)CCOC2 [Compound 598] | 991 | 29.3 | 33.79
4 | COCc1nc2c(cc1Cl)CCCN2c1ccc2cnc(CNC(=O)c3ccc4c(c3)S(=O)(=O)CCOC4)cc2n1 [Compound 599] | 737 | 58.8 | 12.54
5 | O=C(NCc1cc2nc(N3CCC4(CC4)c4cccnc43)ccc2cn1)c1ccc2c(c1)S(=O)(=O)CCOC2 [Compound 600] | 176 | 13.2 | 13.32
6 | O=C(NCc1cc2nc(N3CCCc4ccc(OCC(F)F)nc43)ccc2cn1)c1ccc2c(c1)S(=O)(=O)CCOC2 [Compound 601] | 1910 | 215 | 8.88
7 | COc1cc2c(nc1C)N(c1ccc3cnc(CNC(=O)c4ccc5c(c4)S(=O)(=O)CCOC5)cc3n1)CCC2 [Compound 602] | 158 | 15.8 | 9.98
8 | O=C(NCc1cc2nc(N3CCCc4ccc(F)nc43)ccc2cn1)c1ccc2c(c1)S(=O)(=O)CCOC2 [Compound 603] | 117 | 10.7 | 10.88
9 | O=C(NCc1cc2nc(-c3cccc(N4CC(C5COC5)C4)n3)ccc2cn1)c1ccc2c(c1)S(=O)(=O)CCOC2 [Compound 604] | 56.9 | 5.7 | 10.00
10 | COCc1ccc2c(c1)N(c1ccc3cnc(CNC(=O)c4ccc5c(c4)S(=O)(=O)CCOC5)cc3n1)CCC2 [Compound 605] | 187 | 11.7 | 16.04
11 | O=C(NCc1cc2nc(N3CCOc4ccc(C5CC5)cc43)ccc2cn1)c1ccc2c(c1)S(=O)(=O)CCOC2 [Compound 606] | 125 | 7.5 | 16.72
12 | CO[C@@H](C)c1cnc2c(c1)CCCN2c1ccc2cnc(CNC(=O)c3ccc4c(c3)S(=O)(=O)CCOC4)cc2n1 [Compound 607] | 702 | 44.6 | 15.74
13 | CO[C@H](C)c1cnc2c(c1)CCCN2c1ccc2cnc(CNC(=O)c3ccc4c(c3)S(=O)(=O)CCOC4)cc2n1 [Compound 608] | 952 | 44.5 | 21.42
14 | C[C@@H]1CN(c2cccc(-c3ccc4cnc(CNC(=O)c5ccc6c(c5)S(=O)(=O)[C@@H](C)COC6)cc4n3)c2F)C[C@H](C)O1 [Compound 609] | 1110 | 39.2 | 28.40
15 | C[C@@H]1CN(c2nccc(-c3ccc4cnc(CNC(=O)c5ccc6c(c5)S(=O)(=O)[C@@H](C)COC6)cc4n3)c2F)C[C@H](C)O1 [Compound 610] | 1110 | 51.3 | 21.62
16 | CC1Cc2ccc(-c3ccc4cnc(CNC(=O)c5ccc6c(c5)S(=O)(=O)CCOC6)cc4n3)nc2N(C)C1 (stereo not drawn) [Compound 612] | 350 | 26.6 | 13.16
17 | CO[C@H]1COc2c(-c3ccc4cnc(CNC(=O)c5ccc6c(c5)S(=O)(=O)CCOC6)cc4n3)cccc2N(C)C1 [Compound 613] | 2220 | 213 | 10.41
18 | CO[C@@H]1COc2c(-c3ccc4cnc(CNC(=O)c5ccc6c(c5)S(=O)(=O)CCOC6)cc4n3)cccc2N(C)C1 [Compound 614] | 862 | 95.1 | 9.06
19 | CCN1CCN(c2ccc3cnc(CNC(=O)c4ccc5c(c4)S(=O)(=O)CCOC5)cc3n2)c2ncccc21 [Compound 615] | 358 | 22.1 | 16.22
20 | O=C(NCc1cc2nc(N3CCOc4ccc(C5CC5)nc43)ccc2cn1)c1ccc2c(c1)S(=O)(=O)CCOC2 [Compound 616] | 442 | 8.2 | 54.03
21 | CC(F)(F)c1ccc2c(n1)N(c1ccc3cnc(CNC(=O)c4ccc5c(c4)S(=O)(=O)CCOC5)cc3n1)CCO2 [Compound 617] | 2540 | 90.4 | 28.12
22 | Cc1cnc2c(c1)N(C)CCN2c1ccc2cnc(CNC(=O)c3ccc4c(c3)S(=O)(=O)CCOC4)cc2n1 [Compound 618] | 126 | 9 | 14.00
23 | COc1cnc2c(c1)OCCN2c1ccc2cnc(CNC(=O)c3ccc4c(c3)S(=O)(=O)CCOC4)cc2n1 [Compound 619] | 62.7 | 5.6 | 11.17

Row | SMILES | IC50 [1] [nM] | IC50 [2] [nM] | Ratio* [2]
24 | O=C(NCc1cc2nc(N3CCCc4c(OC(F)F)ccnc43)ccc2cn1)c1ccc2c(c1)S(=O)(=O)CCOC2 [Compound 620] | 158 | 16.8 | 9.37
25 | COC[C@H]1CCCN(c2cccc(-c3ccc4cnc(CNC(=O)c5ccc6c(c5)S(=O)(=O)CCOC6)cc4n3)n2)C1 [Compound 622] | 109 | 27.4 | 3.98
26 | O=C(NCc1cc2nc(N3CCCc4cc(F)c(F)cc43)ccc2cn1)c1ccc2c(c1)S(=O)(=O)CCOC2 [Compound 625] | 515 | 36.7 | 14.05
27 | COCc1nc2c(cc1C)CCCN2c1ccc2cnc(CNC(=O)c3ccc4c(c3)S(=O)(=O)CCOC4)cc2n1 [Compound 626] | 461 | 20 | 23.08
28 | C[C@@H]1CN(c2cccc(-c3ccc4cnc(CNC(=O)c5ccc6c(c5)S(=O)(=O)CCOCC6)cc4n3)n2)C[C@H](C)O1 [Compound 627] | 5 | 3.9 | 1.28
29 | C[C@@H]1CN(c2cccc(-c3ccc4cnc(CNC(=O)c5ccc6c(c5)S(=O)(=O)CCCOC6)cc4n3)n2)C[C@H](C)O1 [Compound 628] | 9.7 | 2.7 | 3.60
30 | COc1c(C)cnc2c1CCCN2c1ccc2cnc(CNC(=O)c3ccc4c(c3)S(=O)(=O)CCOC4)cc2n1 [Compound 629] | 85 | 10 | 8.49
31 | O=C(NCc1cc2nc(N3CCCc4ccc(C5CCOC5)nc43)ccc2cn1)c1ccc2c(c1)S(=O)(=O)CCOC2 (stereo not drawn) [Compound 630] | 1160 | 48 | 24.14
32 | Cc1cc2c(nc1C1CC1)N(c1ccc3cnc(CNC(=O)c4ccc5c(c4)S(=O)(=O)CCOC5)cc3n1)CCC2 [Compound 632] | 1130 | 58.3 | 19.38
33 | CCO[C@@H](C)c1ccc2c(n1)N(c1ccc3cnc(CNC(=O)c4ccc5c(c4)S(=O)(=O)CCOC5)cc3n1)CCC2 [Compound 635] | 2530 | 168 | 15.08
34 | CCO[C@H](C)c1ccc2c(n1)N(c1ccc3cnc(CNC(=O)c4ccc5c(c4)S(=O)(=O)CCOC5)cc3n1)CCC2 [Compound 636] | 4260 | 271 | 15.73
35 | COc1cnc2c(c1C)CCCN2c1ccc2cnc(CNC(=O)c3ccc4c(c3)S(=O)(=O)CCOC4)cc2n1 [Compound 637] | 207 | 20 | 10.34
36 | COC[C@H]1COc2c(-c3ccc4cnc(CNC(=O)c5ccc6c(c5)S(=O)(=O)CCOC6)cc4n3)cccc2N1C [Compound 638] | 883 | 227 | 3.90
37 | COC[C@@H]1COc2c(-c3ccc4cnc(CNC(=O)c5ccc6c(c5)S(=O)(=O)CCOC6)cc4n3)cccc2N1C [Compound 639] | 780 | 102 | 7.66
38 | O=C(NCc1cc2nc(N3CCCC4CCCCC43)ccc2cn1)c1ccc2c(c1)S(=O)(=O)CCOC2 (stereo not drawn) [Compound 640] | 4400 | 615 | 7.16
39 | C[C@@H]1CN(c2cccc(-c3ccc4cnc(CNC(=O)c5cc(F)c6c(c5)S(=O)(=O)[C@H](C)CN6C)cc4n3)n2)C[C@H](C)O1 [Compound 642] | 2950 | 156 | 18.87
40 | O=C(NCc1cc2nc(N3CCCc4ccc(OC(F)F)nc43)ccc2cn1)c1ccc2c(c1)S(=O)(=O)CCOC2 [Compound 643] | 889 | 108 | 8.21
41 | O=C(NCc1cc2nc(N3CCCc4ccc(OC5CC5)cc43)ccc2cn1)c1ccc2c(c1)S(=O)(=O)CCOC2 [Compound 644] | 170 | 6.4 | 26.34
42 | O=C(NCc1cc2nc(N3CCOc4cc(Cl)cnc43)ccc2cn1)c1ccc2c(c1)S(=O)(=O)CCOC2 [Compound 645] | 170 | 9.8 | 17.38
43 | C[C@H]1COCc2ccc(C(=O)NCc3cc4nc(N5CCOc6cc(Cl)cnc65)ccc4cn3)cc2S1(=O)=O [Compound 646] | 247 | 12.1 | 20.44
44 | COc1cccc2c1CCN2c1ccc2cnc(CNC(=O)c3ccc4c(c3)S(=O)(=O)CCOC4)cc2n1 [Compound 647] | 370 | 55.9 | 6.61
45 | C[C@@H]1CN(c2cccc(-c3ccc4cnc(CNC(=O)c5cc6c(cc5F)COCCS6(=O)=O)cc4n3)n2)C[C@H](C)O1 [Compound 648] | 19.4 | 5 | 3.85
46 | CC1CN(c2ccc3cnc(CNC(=O)c4ccc5c(c4)S(=O)(=O)CCOC5)cc3n2)c2ncccc2N1C (stereo not drawn) [Compound 649] | 750 | 126 | 5.93
